Test results: PubChem BioAssay (NCI)
Where “and” joins values, the source holds several entries; their conditions need not be identical. Equal entries are not always repeated.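 Five concentrations, 48 hours, 96-well plates. The concentration for 50% growth inhibition is given as GI50. The concentration for full growth arrest is given as TGI.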

Assays:
Test in all cases: NCI tumour cell line growth inhibition, 48 h
[1] = system: HCT-116 colon
[2] = system: BT-549 breast
[3] = system: PC-3 prostate
[4] = system: SK-MEL-28 melanoma
[5] = system: UO-31 renal
[6] = system: 786-0 renal
[7] = system: A549 NSCLC
[8] = system: KM20L2 colon
[9] = system: UACC-62 melanoma
[10] = system: MCF7 breast
[11] = system: M19-MEL melanoma
[12] = system: P388/ADR leukemia
[13] = system: DU-145 prostate
[14] = system: T-47D breast
[15] = system: NCI-H226 lung
[16] = system: OVCAR-5 ovarian
[17] = system: DMS 273 small cell lung
[18] = system: ACHN renal
[19] = system: HT29 colon
[20] = system: OVCAR-8 ovarian
[21] = system: XF 498 CNS
[22] = system: SR leukemia
[23] = system: SN12C renal
[24] = system: COLO 205 colon
[25] = system: P388 leukemia
[26] = system: SNB-75 CNS
[27] = system: SW-620 colon
[28] = system: CCRF-CEM leukemia
[29] = system: SK-MEL-5 melanoma
[30] = system: K-562 leukemia
[31] = system: HOP-62 NSCLC
[32] = system: MDA-MB-231 breast
[33] = system: HCT-15 colon
[34] = system: SK-OV-3 ovarian
[35] = system: KM12 colon
[36] = system: EKVX NSCLC
[37] = system: SF-268 CNS
[38] = system: U251 CNS
[39] = system: DMS 114 small cell lung
[40] = system: TK-10 renal
[41] = system: NCI-H23 lung
[42] = system: SF-295 CNS
[43] = system: HOP-92 NSCLC
[44] = system: OVCAR-3 ovarian
[45] = system: IGROV1 ovarian
[46] = system: DLD-1 colon
[47] = system: LOX IMVI melanoma
[48] = system: MDA-MB-435
[49] = system: M14 melanoma
[50] = system: SNB-19 CNS
[51] = system: MOLT-4 leukemia
[52] = system: MDA-N
[53] = system: NCI-H460 lung
[54] = system: NCI/ADR-RES ovarian
[55] = system: SN12K1 renal
[56] = system: HOP-18 NSCLC
[57] = system: MALME-3M melanoma
[58] = system: A498 renal
[59] = system: CAKI-1 renal
[60] = system: HL-60(TB) leukemia
[61] = system: NCI-H522 lung
[62] = system: UACC-257 melanoma
[63] = system: SK-MEL-2 melanoma
[64] = system: RPMI-8226 leukemia
[65] = system: HS 578T breast
[66] = system: RXF 393 renal
[67] = system: SF-539 CNS
[68] = system: OVCAR-4 ovarian
[69] = system: HCC-2998 colon

## NC(=S)N/N=C/c1ccc(O)cn1
[1]
  GI50: 13.7 µM and 6.53 µM
  TGI: > 1500 µM and 369 µM
[2]
  TGI: > 670 µM
[3]
  TGI: > 1500 µM
[4]
  GI50: 49.9 µM and 41.6 µM
  TGI: > 1500 µM and 1050 µM
[5]
  GI50: 25.5 µM and 7.24 µM
  TGI: 66.7 µM and 42 µM and 136 µM
[6]
  GI50: 9.37 µM and 2.96 µM
  TGI: 46 µM and > 408 µM
[7]
  GI50: 33.2 µM and 41.1 µM
  TGI: > 1500 µM and 584 µM
[8]
  GI50: 31.7 µM and 19.7 µM and 10.6 µM
  TGI: > 1500 µM
[9]
  GI50: 2.83 µM and 3.13 µM and 1.83 µM
  TGI: 10.7 µM and 13.1 µM and 37.3 µM
[10]
  GI50: 2.03 µM
  TGI: > 1500 µM
[11]
  GI50: 15.4 µM and 9.44 µM
[12]
  GI50: 0.943 µM and 1.5 µM
  TGI: 154 µM and 24.5 µM
[13]
  TGI: 314 µM
[14]
  TGI: > 451 µM
[15]
  GI50: 29.7 µM
  TGI: 83.7 µM and 374 µM
[16]
  GI50: 30.2 µM and 34.8 µM
  TGI: > 1500 µM and 928 µM
[17]
  GI50: 8.83 µM and 5.35 µM
  TGI: 31.1 µM and 37 µM and 16.7 µM
[18]
  GI50: 4.14 µM
  TGI: 40.8 µM and 16.1 µM
[19]
  GI50: 37.9 µM
  TGI: > 929 µM
[20]
  GI50: 4.71 µM
  TGI: 72.3 µM and 161 µM and 393 µM
[21]
  GI50: 15.6 µM
  TGI: 94 µM and 168 µM
[22]
  TGI: > 323 µM
[23]
  GI50: 8.5 µM and 7.93 µM
  TGI: 312 µM and 119 µM
[24]
  GI50: 35.8 µM and 55 µM and 8.96 µM
  TGI: > 1500 µM and 655 µM
[25]
  TGI: 8.3 µM
[26]
  GI50: 13.8 µM
  TGI: 60.4 µM and 227 µM
[27]
  GI50: 27.4 µM and 13.2 µM
  TGI: > 1500 µM
[28]
  GI50: 4.59 µM and 2.42 µM
  TGI: 37.4 µM and 12 µM and 60.8 µM
[29]
  GI50: 11.3 µM and 8.06 µM
[30]
  GI50: 12.3 µM and 7.25 µM
  TGI: 55.2 µM and 439 µM
[31]
  GI50: 10.6 µM and 5.65 µM
  TGI: 35.7 µM and 16.9 µM and 74.6 µM
[32]
  TGI: > 427 µM
[33]
  GI50: 22.1 µM and 13.3 µM
[34]
  GI50: 128 µM and 25.8 µM
  TGI: 953 µM and 613 µM
[35]
  GI50: 35 µM
  TGI: > 1500 µM
[36]
  GI50: 82.5 µM
  TGI: 210 µM
[37]
  GI50: 5.55 µM and 3.43 µM
[38]
  GI50: 9.35 µM and 6.93 µM
  TGI: 391 µM and 602 µM
[39]
  GI50: 3.78 µM and 1.04 µM and 2.04 µM
[40]
  TGI: > 1390 µM
[41]
  GI50: 3.48 µM
[42]
  GI50: 33.7 µM and 31.7 µM
  TGI: 113 µM and 111 µM
[43]
  GI50: 6.73 µM
  TGI: > 1300 µM
[44]
  GI50: 19.9 µM and 5.16 µM
  TGI: > 1500 µM and 240 µM
[45]
  GI50: 50.9 µM and 27.1 µM
  TGI: 916 µM and 827 µM
[46]
  GI50: 39.6 µM and 31 µM
  TGI: > 1500 µM
[47]
  GI50: 12.4 µM
[48]
  TGI: > 1130 µM
[49]
  GI50: 16.3 µM
  TGI: 35.6 µM and 25.6 µM
[50]
  GI50: 29.2 µM and 8.2 µM
  TGI: 1020 µM and > 1360 µM
[51]
  GI50: 6.5 µM and 3.19 µM and 1.36 µM
[52]
  TGI: > 1180 µM
[53]
  GI50: 29.1 µM
  TGI: 595 µM
[54]
  GI50: 3.09 µM
[55]
  TGI: > 1500 µM
[56]
  GI50: 21 µM
  TGI: 134 µM and 974 µM
[57]
  GI50: 31 µM and 13.4 µM
  TGI: 113 µM and 138 µM
[58]
  GI50: 12.4 µM and 36 µM
  TGI: 131 µM and 292 µM
[59]
  GI50: 32.1 µM and 21.8 µM and 8.53 µM
  TGI: 178 µM and 339 µM
[60]
  GI50: 13.7 µM
  TGI: 44.7 µM and 21 µM and 21.7 µM
[61]
  GI50: 10.2 µM and 1.41 µM and 7 µM
[62]
  GI50: 25.6 µM and 34 µM
  TGI: 74.2 µM and 112 µM and 149 µM
[63]
  GI50: 12.5 µM and 6.35 µM and 57.8 µM
[64]
  GI50: 22.3 µM and 6.64 µM
  TGI: > 1500 µM and 662 µM
[65]
  TGI: > 1500 µM
[66]
  GI50: 20.5 µM and 83.3 µM and 14.6 µM
  TGI: > 1500 µM and 552 µM
[67]
  GI50: 4.27 µM and 2.77 µM
  TGI: 23.6 µM and 10.9 µM and 17.2 µM

## C[C@H](N)C(=O)N[C@@H]1[C@H]2C(=C(O)C[C@@H](O)[C@@H]2O)C(=O)O[C@@H]1C
[1]
  TGI: > 100 µM
[68]
  TGI: > 100 µM
[4]
  TGI: > 100 µM
[5]
  TGI: > 100 µM
[7]
  TGI: > 100 µM
[8]
  TGI: > 100 µM
[9]
  TGI: > 100 µM
[10]
  TGI: > 100 µM
[11]
  TGI: > 100 µM
[12]
  TGI: > 100 µM
[15]
  TGI: > 100 µM
[16]
  TGI: > 100 µM
[17]
  TGI: > 100 µM
[19]
  TGI: > 100 µM
[20]
  TGI: > 100 µM
[21]
  TGI: > 100 µM
[23]
  TGI: > 100 µM
[24]
  TGI: > 100 µM
[25]
  TGI: > 100 µM
[26]
  TGI: > 100 µM
[27]
  TGI: > 100 µM
[28]
  TGI: > 100 µM
[29]
  TGI: > 100 µM
[30]
  TGI: > 100 µM
[31]
  TGI: > 100 µM
[33]
  TGI: > 100 µM
[34]
  TGI: > 100 µM
[35]
  TGI: > 100 µM
[36]
  TGI: > 100 µM
[37]
  TGI: > 100 µM
[38]
  TGI: > 100 µM
[39]
  TGI: > 100 µM
[41]
  TGI: > 100 µM
[42]
  TGI: > 100 µM
[43]
  TGI: > 100 µM
[44]
  TGI: > 100 µM
[45]
  TGI: > 100 µM
[46]
  TGI: > 100 µM
[47]
  TGI: > 100 µM
[50]
  TGI: > 100 µM
[51]
  TGI: > 100 µM
[69]
  TGI: > 100 µM
[53]
  TGI: > 100 µM
[54]
  TGI: > 100 µM
[55]
  TGI: > 100 µM
[56]
  TGI: > 100 µM
[57]
  TGI: > 100 µM
[58]
  TGI: > 100 µM
[59]
  TGI: > 100 µM
[60]
  TGI: > 100 µM
[61]
  TGI: > 100 µM
[62]
  TGI: > 100 µM
[63]
  TGI: > 100 µM
[64]
  TGI: > 100 µM
[66]
  TGI: > 100 µM
[67]
  TGI: > 100 µM
